According to patent US6399645B1, “Chemoprevention and treatment of cervical or vaginal neoplasia” (priority 2000, dated 2002):

Assays:
[1] = test system: HPV-induced benign tumors of laryngeal tissue; conditions: mouse model; cited from earlier work
mammary carcinogenesis = conditions: rat model; cited from earlier work
estradiol metabolism = assay: Urinary 2-hydroxyestrone to 16-alpha-hydroxyestrone ratio by ELISA in trial patients; assay type: in vivo, human
Description: Clean catch urine specimens were obtained from each patient at the initial visit and again at their 4-week visit. 2-hydroxyestrone to 16-alpha-hydrosytestrone ratios were assessed in each urine sample. Ascorbic acid was added to the urine specimens to aid in preservation for accurate analysis. ELISA assays were performed to assess the quantity of 2-hydroxyestrone and 16-alpha-hydroxyestrone in each urine sample, and were reported in ng/ml.

[2] = test system: cervical intraepithelial neoplasia (CIN); assay: Placebo-controlled trial of oral indole-3-carbinol in patients with histologically confirmed CIN, 12 weeks; assay type: in vivo, human; conditions: for patients with complete regression based on 12-week biopsy: placebo 0 of 10; for mean grade change of CIN: placebo 1.22
Description: Thirty subjects with histologically confirmed CIN were enrolled. Eligibility requirements were as follows: adequate colposcopy, negative ECC, no suspicion of invasion, non-pregnant, and […]. Evaluating colposcopists and patients were blinded to the treatment. All residents and staff involved in the study were instructed regarding the protocol. The patients were randomized to placebo, 200 mg/day, or 400-mg/day treatment of indole-3-carbinol administered orally for 12 weeks. Randomization was performed by successively assigning patients from a computer-generated randomization table. […] All patients underwent colposcopy at the initial visit as well as at their 4-week, 8-week, and 12-week visit. Photodocumentation of each colposcopic examination was obtained. At the end of the trial, each patient was reexamined, and if the patient had persistent CIN on 12-week biopsy, or if the colposcopic impression was persistent CIN, they underwent LEEP of the transformation zone. The dysplasia was classified by the pathologists in the usual manner and defined as follows: mild dysplasia meaning the presence of immature (dysplastic) cells present in the lower third of the squamous mucosa, moderate dysplasia in the lower two thirds, severe dysplasia the lower three fourths of the thickness of the mucosa and carcinoma in situ (“CIS”) full thickness immaturity. The cases were originally diagnosed by a sign out pathologist. The diagnosis of all cases was verified by the same pathologist for uniformity. In all cases, the pathologist was in agreement with the pathologist that had signed out the case. HPV status was assessed in all patients by Hybrid capture assay tests ([…] Diagnostics; Beltsville, MD) for low-risk (HPV types 6, 11, 42, 43, 44) and high-risk (HPV types 16, 18, 31, 33, 35, 45, 51, 52, 56). If the Hybrid capture assay was negative; a follow-up polymerase chain reaction (PCR) analysis was performed using consensus primers shown below for the L-1 region of HPV to confirm HPV positivity. The PCR amplification conditions were optimized using DNA isolated from paraffin embedded control HPV positive cervical cancer specimens prior to analysis of the study patient'samples.

OCc1c[nH]c2ccccc12 [I3C, 1H-indole-3-methanol]
growth of HPV-induced benign tumors of laryngeal tissue [1]: inhibits growth | inhibition of mammary carcinogenesis (mammary carcinogenesis): effective in inhibiting mammary carcinogenesis | change of urinary 2-hydroxyestrone to 16-alpha-hydroxyestrone ratio before and after therapy (estradiol metabolism; 200 mg/day and 400 mg/day groups, initiation vs 4 weeks, placebo showed a decrease): general trend in increase in the ratios | physiologic effect of the drug (estradiol metabolism; conclusion of the placebo-controlled trial): seen in a dose-dependent fashion | relative risk (RR), protective effect ([2]; 200 mg/day group vs placebo, 95% CI 0.25 to 0.99, p=0.023): 0.50 | patients with complete regression based on 12-week biopsy ([2]; 200 mg/day orally for 12 weeks, 4 of 8 patients): 50.0% | mean grade change of CIN ([2]; 200 mg/day orally for 12 weeks): 1.38 | relative risk (RR), protective effect ([2]; 400 mg/day group vs placebo, 95% CI 0.31 to 0.99, p=0.032): 0.55 | patients with complete regression based on 12-week biopsy ([2]; 400 mg/day orally for 12 weeks, 4 of 9 patients): 44.4% | mean grade change of CIN ([2]; 400 mg/day orally for 12 weeks): 1.78 | patients with complete regression of CIN ([2]; 12 weeks of daily oral administration, summary statement): Roughly half | correlation of HPV presence with response ([2]; HPV status by Hybrid capture assay / PCR): presence of HPV does not correlate with response | dose response of mean grade of CIN regression ([2]; placebo, 200 mg/day and 400 mg/day groups): linear dose response relationship
